From patent publication US11168319B1, “Plant cell culture” (Inari Agriculture Technology, Inc., priority 2017, dated 2021)

How the values were obtained:
maize A188 protoplasts = assay: Protoplast viability (Evans blue staining / light microscope / hemocytometer); type: cell-based; conditions: for Viability (%): 100 mM Ca; for viability / appearance: 50 millimolar; for protoplast viability: 288 hours, YPIM B- medium
Experimental: Separate suspensions of maize B73 and A188 protoplasts (2×10^5 cells per milliliter) were prepared in YPIM B-liquid medium containing various combinations of the added salts calcium chloride, potassium ascorbate, and magnesium chloride or magnesium sulfate. One-half milliliter aliquots of the suspensions were dispensed into a 24-well microtiter plate in the arrangement shown in Table 2, which lists the concentrations of calcium chloride (“Ca”), potassium ascorbate (“A”), and magnesium chloride (“MgCl2”) or magnesium sulfate (“MgSO4”) in millimolar values.
Viability was judged by Evans blue staining and visualization under a light microscope.
Separate suspensions of maize A188 protoplasts (2×10^5 cells per milliliter) were prepared in YPIM B-liquid medium containing calcium chloride at 0 or 50 millimolar. One-half milliliter aliquots of the suspensions were dispensed into a 24-well microtiter plate.
Viability was judged by visualization under a light microscope.
Separate suspensions of maize B73 and A188 protoplasts (2×10^5 cells per milliliter) were prepared in PIM B-liquid medium (identical to YPIM B-medium except with the 6-benzylaminopurine substituted with 0.022 milligrams/L thidiazuron) containing calcium chloride added at 0 or 50 millimolar. One-half milliliter aliquots of the suspensions were dispensed into a 24-well microtiter plate.
Separate suspensions of maize B73 and A188 protoplasts (2×10^5 cells per milliliter) were prepared in YPIM B-liquid medium containing (a) calcium chloride added at 100 millimolar, or (b) 1 millimolar glutathione, or (c) no added calcium or glutathione. One-milliliter aliquots of the suspensions were dispensed into a 24-well microtiter plate. At 16, 40, 64, and 136 hours of culture, 50-microliter samples were taken for hemocytometer analysis from each well; for the plates containing maize A188 protoplasts, parallel 50-microliter samples were taken from a replicate well at 16, 40, and 64 hours of culture for quantification using a Cellometer cell counter (Nexcelom Bioscience LLC, Lawrence, Mass.).
Viability was determined by Evans blue staining and quantification using a hemocytometer. Under conditions with high concentrations of calcium, Evans blue can create precipitates that interfere with cell counting; to prevent this, 5 microliters of an EDTA solution was added to the samples from the wells containing 100 millimolar calcium chloride immediately prior to staining.

maize B104 protoplasts = assay: Cell division rate by EdU staining (% EdU); conditions: O2 5%, Ca^2+ 100 mM, glutathione 0 mM, 90 h
Experimental: Cell division rates are expressed as “% EdU” (percentage of cells displaying the EdU signal relative to the total cell count).
Cell division was monitored, e.g., by microscopic observations. […] Evidence of cell division was observed by microscopy and included increased cell or protoplast size, bulging membranes, and large groups of organelles occupying the separating daughter cells. Quantification of cell division was carried out using fluorescent staining. […] Cells that are the result of cellular division in the presence of EdU were identified by the resulting green fluorescent signal, which can be quantified by various means, e.g., with a microplate reader, cell counter, or cell sorter.
In a separate experiment, maize HiIIA protoplasts were grown in 24-well plates using YPIM B-liquid medium containing 100 millimolar Ca^2+ and 20 micromolar EdU. Identical plates were incubated under hypoxia (5% oxygen by volume, 26 degrees Celsius, 80% relative humidity) or ambient oxygen (21% oxygen by volume, 26 degrees Celsius, 80% relative humidity). Entire wells (250 microliters) were taken for EdU detection at four time points. The contents of each well was centrifuged and the pellet subjected to the Click-iT™ EdU Alexa Fluor™ 488 Imaging Kit (catalogue number C10337, Thermo Fisher Scientific, Waltham, Mass.) fluorescent labelling protocol. The labelled protoplasts were resuspended in YPIM B-medium and samples analyzed on a Nexcelom Cellometer (Nexcelom Bioscience LLC, Lawrence, Mass.). This assay was developed to detect the EdU signal from the nucleus of a cell resulting from cell division, as well as the fluorescent signal from chloroplasts as a measure of total cell count.
Entire wells (1000 microliters) were taken for EdU detection at three time points; analyses were of duplicate samples of each of two replicate wells.

[Ca+2].[Cl-].[Cl-] [calcium chloride]
Viability (%) (maize A188 protoplasts; 0 hours, hemocytometer): 90%
Viability (%) (maize A188 protoplasts; 16 hours): 67%
Viability (%) (maize A188 protoplasts; 40 hours): 57%
Viability (%) (maize A188 protoplasts; 64 hours): 59%
Viability (%) (maize A188 protoplasts; 136 hours): 46%
viability / appearance (maize A188 protoplasts; 96 hours, vs no added calcium): appeared healthier
viability / appearance (maize A188 protoplasts; 168 hours (7 days)): very many large, healthy-looking protoplasts
protoplast viability (maize A188 protoplasts; 50 mM added salt): about 20%
protoplast viability (maize A188 protoplasts; 100 mM added salt): about 70%
viability (maize A188 protoplasts; day 6, PIM B- medium, 50 millimolar calcium, several wells): 100%
cell wall regeneration and cell division (maize A188 protoplasts; day 20, 50 millimolar): had generated cell walls and undergone at least some cell division
EdU staining mean % (maize B104 protoplasts): 21.9%
